The results in this text go back to US10413529B2, “Methods of inhibiting cataracts and presbyopia” (UNIVERSITY OF MASSACHUSETTS, priority 2013, dated 2019).

In this test the target is T1, γD-crystallin (Homo sapiens, UniProt P07320).
T1 construct: 6xHis (N); made in house; host or cells: M15pRep E. coli (pQe1 plasmid from King Labs, MIT)
T1 sequence (P07320 1-174): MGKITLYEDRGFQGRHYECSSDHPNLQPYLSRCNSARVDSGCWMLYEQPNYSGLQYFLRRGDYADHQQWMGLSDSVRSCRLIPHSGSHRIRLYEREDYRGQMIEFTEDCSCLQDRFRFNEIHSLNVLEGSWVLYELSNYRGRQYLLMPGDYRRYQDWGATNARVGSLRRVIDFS
In words: Dynamic light scattering (DLS) of γD-crystallin, hydrodynamic radius of monomer and aggregate. The test is classed as biochemical. The note with it: γD modified with the agent. Here is the method:
The scattering wave vector is defined as q=4πn sin (θ/2)/λ, where θ is the scattering angle, and λ=514.5, the wavelength of the argon laser in vacuum, and n is 1.33, the refractive index of water. The temperature of the sample was held at constant temperature of 4 to 37±0.1° C. by a circulating water bath. The correlation function was analyzed using CONTIN analysis [NT] times for the correlation functions at measured angles. […] The delay times (τ) were converted to Γ and graphed versus q^2. The slope of the fitted line is the diffusion coefficient (D). […] All solutions were filtered with 0.22 μm hydrophobic PVDF membranes (Fisher Scientific) into 10 mm diameter borosilicate glass tubes and sealed. Solutions were allowed to equilibrate for thirty minutes prior to measuring light scattering. […] The pH and salt concentration were adjusted via overnight dialysis at 4° C. and their final concentration adjusted to 1.0 g/L. […] The scattering wave vector is defined as q=4πn sin (θ/2)/λ, where θ is the scattering angle, and λ=514.5, the wavelength of the argon laser in vacuum, and n is 1.33, the refractive index of water. The temperature of the sample was held at constant temperature of 4 to 37±0.1° C. by a circulating water bath. The correlation function was analyzed using CONTIN analysis [NT] times for the correlation functions at measured angles. […] The delay times (τ) were converted to Γ and graphed versus q^2. The slope of the fitted line is the diffusion coefficient (D). […] All solutions were filtered with 0.22 μm hydrophobic PVDF membranes (Fisher Scientific) into 10 mm diameter borosilicate glass tubes and sealed. Solutions were allowed to equilibrate for thirty minutes prior to measuring light scattering.

On to `NCCOCCOCCOCCOCCC(=O)O` [CAPEG4], for which the Rh reads like this: (fast mode (monomer), 37° C.) 2.8 nm; (fast mode (monomer, first Rh column), 22° C.) 2.9 nm; (fast mode (monomer, first Rh column), 22° C., listed as CAPEG) 2.8 nm.
